Test results published in US9597330B2, “Drugs for treating respiratory diseases” (DAIICHI SANKYO COMPANY, LIMITED, priority 2013, dated 2017).

Biological target: hNav 1.7 (Homo sapiens (Human), UniProt Q15858)
Assay: Electrophysiological evaluation, automated patch clamp (IonWorks Quattro, Population Patch Clamp mode)
Type: cell-based
Conditions: HEK293A cells stably expressing hNav 1.7/β1/β2; response to second depolarization pulse, pre-pulse potential set to V1/2; read-out: hNav1.7 IC50

Sequence of hNav 1.7 (Q15858 whole entry): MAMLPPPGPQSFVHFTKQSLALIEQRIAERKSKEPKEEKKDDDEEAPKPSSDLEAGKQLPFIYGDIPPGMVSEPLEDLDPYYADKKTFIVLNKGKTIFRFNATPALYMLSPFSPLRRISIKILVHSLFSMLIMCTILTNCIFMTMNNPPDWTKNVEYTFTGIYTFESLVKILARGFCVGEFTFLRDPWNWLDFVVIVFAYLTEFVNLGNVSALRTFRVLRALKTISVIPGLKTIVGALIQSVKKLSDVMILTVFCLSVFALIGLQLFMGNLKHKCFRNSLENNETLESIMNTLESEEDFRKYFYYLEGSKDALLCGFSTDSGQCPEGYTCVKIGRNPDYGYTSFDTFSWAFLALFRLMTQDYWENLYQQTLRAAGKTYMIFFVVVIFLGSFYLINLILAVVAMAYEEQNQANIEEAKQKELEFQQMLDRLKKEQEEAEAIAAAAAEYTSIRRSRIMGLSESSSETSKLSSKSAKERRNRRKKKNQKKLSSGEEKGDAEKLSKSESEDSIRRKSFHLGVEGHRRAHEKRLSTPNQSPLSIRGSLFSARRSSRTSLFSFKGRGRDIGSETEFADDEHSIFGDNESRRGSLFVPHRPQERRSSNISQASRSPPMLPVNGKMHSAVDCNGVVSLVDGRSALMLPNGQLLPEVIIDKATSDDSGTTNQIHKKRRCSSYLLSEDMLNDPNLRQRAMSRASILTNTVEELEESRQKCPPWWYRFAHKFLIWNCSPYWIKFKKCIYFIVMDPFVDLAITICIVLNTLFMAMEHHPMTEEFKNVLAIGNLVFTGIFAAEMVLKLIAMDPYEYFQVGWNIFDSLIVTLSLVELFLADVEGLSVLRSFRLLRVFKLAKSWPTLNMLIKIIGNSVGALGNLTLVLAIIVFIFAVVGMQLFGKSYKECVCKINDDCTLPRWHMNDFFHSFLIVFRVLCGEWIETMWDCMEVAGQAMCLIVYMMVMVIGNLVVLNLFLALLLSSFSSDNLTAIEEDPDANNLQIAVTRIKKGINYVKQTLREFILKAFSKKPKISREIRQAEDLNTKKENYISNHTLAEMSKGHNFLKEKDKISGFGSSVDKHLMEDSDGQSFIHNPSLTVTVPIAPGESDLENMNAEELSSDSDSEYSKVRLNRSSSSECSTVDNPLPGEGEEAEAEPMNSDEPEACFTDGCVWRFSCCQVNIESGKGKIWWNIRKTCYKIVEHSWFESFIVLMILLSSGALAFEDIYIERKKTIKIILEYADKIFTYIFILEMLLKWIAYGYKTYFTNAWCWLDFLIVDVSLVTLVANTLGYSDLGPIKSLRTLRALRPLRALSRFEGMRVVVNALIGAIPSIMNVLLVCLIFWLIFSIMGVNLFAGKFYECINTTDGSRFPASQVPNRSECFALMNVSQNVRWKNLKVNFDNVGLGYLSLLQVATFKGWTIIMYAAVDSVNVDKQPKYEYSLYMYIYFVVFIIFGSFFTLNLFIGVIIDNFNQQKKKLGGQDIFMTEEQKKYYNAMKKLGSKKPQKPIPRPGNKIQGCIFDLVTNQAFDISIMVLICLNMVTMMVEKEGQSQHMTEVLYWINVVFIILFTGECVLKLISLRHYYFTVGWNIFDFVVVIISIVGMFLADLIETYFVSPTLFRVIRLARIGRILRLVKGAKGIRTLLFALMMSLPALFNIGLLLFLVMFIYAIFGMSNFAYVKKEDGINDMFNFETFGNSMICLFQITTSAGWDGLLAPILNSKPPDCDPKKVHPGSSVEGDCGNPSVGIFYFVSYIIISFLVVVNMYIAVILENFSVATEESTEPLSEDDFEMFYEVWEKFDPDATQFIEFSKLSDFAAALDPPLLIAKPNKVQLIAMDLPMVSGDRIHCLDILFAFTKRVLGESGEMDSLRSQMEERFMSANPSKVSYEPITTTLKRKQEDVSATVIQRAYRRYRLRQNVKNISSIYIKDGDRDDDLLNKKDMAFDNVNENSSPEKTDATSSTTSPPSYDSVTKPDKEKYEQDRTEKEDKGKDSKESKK
Sequence of hNav 1.7 (Q07699 19-218 partner): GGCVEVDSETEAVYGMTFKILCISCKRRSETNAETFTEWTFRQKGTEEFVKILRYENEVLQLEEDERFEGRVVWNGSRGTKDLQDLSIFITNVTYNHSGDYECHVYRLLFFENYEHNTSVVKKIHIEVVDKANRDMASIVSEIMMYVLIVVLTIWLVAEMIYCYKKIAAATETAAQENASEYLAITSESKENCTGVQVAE
Sequence of hNav 1.7 (O60939 30-215 partner): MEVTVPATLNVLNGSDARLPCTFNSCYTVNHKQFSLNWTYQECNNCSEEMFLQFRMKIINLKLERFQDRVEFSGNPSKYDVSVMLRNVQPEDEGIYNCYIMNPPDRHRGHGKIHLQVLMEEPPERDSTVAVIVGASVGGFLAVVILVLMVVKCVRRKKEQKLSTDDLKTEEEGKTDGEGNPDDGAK

| IC50 | Structure (SMILES) |
| --- | --- |
| 91 nM | Cn1nccc1[C@H]1CCCCC[C@@H]1Oc1cc(F)c(S(=O)(=O)Nc2ccncn2)cc1F (relative stereo) [Compound 9, 2,5-Difluoro-4-{[(1S*,2R*)-2-(1-methyl-1H-pyrazol-5-yl)cycloheptyl]oxy}-N-(pyrimidin-4-yl)benzenesulfonamide] |
| 37 nM | Cn1nccc1[C@H]1CCCCC[C@@H]1Oc1cc(F)c(S(=O)(=O)Nc2ccncn2)cc1Cl (relative stereo) [Compound 19, 5-Chloro-2-fluoro-4-{[(1S*,2R*)-2-(1-methyl-1H-pyrazol-5-yl)cycloheptyl]oxy}-N-(pyrimidin-4-yl)benzenesulfonamide] |
